Oligonucleotides are given in HELM: sugar(base)linkage, 5' to 3'; d 2'-deoxyribose, r ribose, m 2'-O-methylribose, p phosphate. ss, as = sense and antisense strand
target: SOST; experiment: reporter assay of Huesken 2005; conditions: siRNA
Also: test concentration or dose not given here.

Substance	normalised inhibition (eCFP-eYFP dual reporter) [%]
RNA1{r(C)p.r(G)p.r(C)p.r(C)p.r(U)p.r(G)p.r(C)p.r(U)p.r(G)p.r(C)p.r(C)p.r(C)p.r(A)p.r(A)p.r(C)p.r(G)p.r(C)p.r(C)p.r(A)p.d(T)p.d(T)}|RNA2{r(U)p.r(G)p.r(G)p.r(C)p.r(G)p.r(U)p.r(U)p.r(G)p.r(G)p.r(G)p.r(C)p.r(A)p.r(G)p.r(C)p.r(A)p.r(G)p.r(G)p.r(C)p.r(G)p.d(C)p.d(G)}$$$RNA1{StrandType:ss}|RNA2{StrandType:as}$	64.6
RNA1{r(C)p.r(G)p.r(C)p.r(G)p.r(A)p.r(G)p.r(C)p.r(U)p.r(G)p.r(C)p.r(A)p.r(C)p.r(U)p.r(U)p.r(C)p.r(A)p.r(C)p.r(C)p.r(C)p.d(T)p.d(T)}|RNA2{r(G)p.r(G)p.r(G)p.r(U)p.r(G)p.r(A)p.r(A)p.r(G)p.r(U)p.r(G)p.r(C)p.r(A)p.r(G)p.r(C)p.r(U)p.r(C)p.r(G)p.r(C)p.r(G)p.d(G)p.d(C)}$$$RNA1{StrandType:ss}|RNA2{StrandType:as}$	54.8
RNA1{r(C)p.r(G)p.r(C)p.r(G)p.r(C)p.r(G)p.r(C)p.r(G)p.r(C)p.r(G)p.r(C)p.r(A)p.r(A)p.r(G)p.r(G)p.r(U)p.r(G)p.r(C)p.r(G)p.d(T)p.d(T)}|RNA2{r(C)p.r(G)p.r(C)p.r(A)p.r(C)p.r(C)p.r(U)p.r(U)p.r(G)p.r(C)p.r(G)p.r(C)p.r(G)p.r(C)p.r(G)p.r(C)p.r(G)p.r(C)p.r(G)p.d(G)p.d(C)}$$$RNA1{StrandType:ss}|RNA2{StrandType:as}$	60.6
RNA1{r(C)p.r(G)p.r(G)p.r(C)p.r(G)p.r(C)p.r(G)p.r(C)p.r(C)p.r(U)p.r(G)p.r(C)p.r(U)p.r(G)p.r(C)p.r(C)p.r(C)p.r(A)p.r(A)p.d(T)p.d(T)}|RNA2{r(U)p.r(U)p.r(G)p.r(G)p.r(G)p.r(C)p.r(A)p.r(G)p.r(C)p.r(A)p.r(G)p.r(G)p.r(C)p.r(G)p.r(C)p.r(G)p.r(C)p.r(C)p.r(G)p.d(G)p.d(G)}$$$RNA1{StrandType:ss}|RNA2{StrandType:as}$	84.6
RNA1{r(C)p.r(G)p.r(G)p.r(U)p.r(C)p.r(A)p.r(C)p.r(C)p.r(G)p.r(A)p.r(G)p.r(C)p.r(U)p.r(G)p.r(G)p.r(U)p.r(G)p.r(U)p.r(G)p.d(T)p.d(T)}|RNA2{r(C)p.r(A)p.r(C)p.r(A)p.r(C)p.r(C)p.r(A)p.r(G)p.r(C)p.r(U)p.r(C)p.r(G)p.r(G)p.r(U)p.r(G)p.r(A)p.r(C)p.r(C)p.r(G)p.d(G)p.d(C)}$$$RNA1{StrandType:ss}|RNA2{StrandType:as}$	52.2
RNA1{r(C)p.r(G)p.r(U)p.r(G)p.r(U)p.r(A)p.r(G)p.r(U)p.r(G)p.r(G)p.r(A)p.r(G)p.r(G)p.r(G)p.r(C)p.r(C)p.r(A)p.r(G)p.r(G)p.d(T)p.d(T)}|RNA2{r(C)p.r(C)p.r(U)p.r(G)p.r(G)p.r(C)p.r(C)p.r(C)p.r(U)p.r(C)p.r(C)p.r(A)p.r(C)p.r(U)p.r(A)p.r(C)p.r(A)p.r(C)p.r(G)p.d(G)p.d(A)}$$$RNA1{StrandType:ss}|RNA2{StrandType:as}$	60.7
RNA1{r(C)p.r(G)p.r(U)p.r(G)p.r(U)p.r(C)p.r(C)p.r(G)p.r(A)p.r(G)p.r(U)p.r(A)p.r(C)p.r(A)p.r(G)p.r(C)p.r(U)p.r(G)p.r(C)p.d(T)p.d(T)}|RNA2{r(G)p.r(C)p.r(A)p.r(G)p.r(C)p.r(U)p.r(G)p.r(U)p.r(A)p.r(C)p.r(U)p.r(C)p.r(G)p.r(G)p.r(A)p.r(C)p.r(A)p.r(C)p.r(G)p.d(T)p.d(C)}$$$RNA1{StrandType:ss}|RNA2{StrandType:as}$	54.8
RNA1{r(C)p.r(U)p.r(A)p.r(C)p.r(C)p.r(G)p.r(C)p.r(G)p.r(C)p.r(G)p.r(C)p.r(A)p.r(G)p.r(C)p.r(G)p.r(C)p.r(G)p.r(U)p.r(G)p.d(T)p.d(T)}|RNA2{r(C)p.r(A)p.r(C)p.r(G)p.r(C)p.r(G)p.r(C)p.r(U)p.r(G)p.r(C)p.r(G)p.r(C)p.r(G)p.r(C)p.r(G)p.r(G)p.r(U)p.r(A)p.r(G)p.d(C)p.d(G)}$$$RNA1{StrandType:ss}|RNA2{StrandType:as}$	50.5
RNA1{r(C)p.r(U)p.r(C)p.r(A)p.r(A)p.r(G)p.r(G)p.r(A)p.r(C)p.r(U)p.r(U)p.r(C)p.r(G)p.r(G)p.r(G)p.r(A)p.r(C)p.r(C)p.r(G)p.d(T)p.d(T)}|RNA2{r(C)p.r(G)p.r(G)p.r(U)p.r(C)p.r(C)p.r(C)p.r(G)p.r(A)p.r(A)p.r(G)p.r(U)p.r(C)p.r(C)p.r(U)p.r(U)p.r(G)p.r(A)p.r(G)p.d(C)p.d(T)}$$$RNA1{StrandType:ss}|RNA2{StrandType:as}$	62.6
RNA1{r(C)p.r(U)p.r(C)p.r(G)p.r(G)p.r(A)p.r(G)p.r(A)p.r(G)p.r(U)p.r(A)p.r(C)p.r(C)p.r(C)p.r(C)p.r(G)p.r(A)p.r(G)p.r(C)p.d(T)p.d(T)}|RNA2{r(G)p.r(C)p.r(U)p.r(C)p.r(G)p.r(G)p.r(G)p.r(G)p.r(U)p.r(A)p.r(C)p.r(U)p.r(C)p.r(U)p.r(C)p.r(C)p.r(G)p.r(A)p.r(G)p.d(C)p.d(T)}$$$RNA1{StrandType:ss}|RNA2{StrandType:as}$	44.4
RNA1{r(C)p.r(U)p.r(G)p.r(G)p.r(U)p.r(G)p.r(G)p.r(C)p.r(C)p.r(U)p.r(C)p.r(G)p.r(U)p.r(G)p.r(C)p.r(A)p.r(A)p.r(G)p.r(U)p.d(T)p.d(T)}|RNA2{r(A)p.r(C)p.r(U)p.r(U)p.r(G)p.r(C)p.r(A)p.r(C)p.r(G)p.r(A)p.r(G)p.r(G)p.r(C)p.r(C)p.r(A)p.r(C)p.r(C)p.r(A)p.r(G)p.d(G)p.d(C)}$$$RNA1{StrandType:ss}|RNA2{StrandType:as}$	52.5
RNA1{r(C)p.r(U)p.r(U)p.r(C)p.r(A)p.r(C)p.r(C)p.r(C)p.r(G)p.r(C)p.r(U)p.r(A)p.r(C)p.r(G)p.r(U)p.r(G)p.r(A)p.r(C)p.r(C)p.d(T)p.d(T)}|RNA2{r(G)p.r(G)p.r(U)p.r(C)p.r(A)p.r(C)p.r(G)p.r(U)p.r(A)p.r(G)p.r(C)p.r(G)p.r(G)p.r(G)p.r(U)p.r(G)p.r(A)p.r(A)p.r(G)p.d(T)p.d(G)}$$$RNA1{StrandType:ss}|RNA2{StrandType:as}$	59.4
RNA1{r(G)p.r(A)p.r(A)p.r(C)p.r(G)p.r(G)p.r(A)p.r(G)p.r(G)p.r(G)p.r(C)p.r(G)p.r(G)p.r(C)p.r(C)p.r(U)p.r(C)p.r(C)p.r(C)p.d(T)p.d(T)}|RNA2{r(G)p.r(G)p.r(G)p.r(A)p.r(G)p.r(G)p.r(C)p.r(C)p.r(G)p.r(C)p.r(C)p.r(C)p.r(U)p.r(C)p.r(C)p.r(G)p.r(U)p.r(U)p.r(C)p.d(T)p.d(C)}$$$RNA1{StrandType:ss}|RNA2{StrandType:as}$	52.6
RNA1{r(G)p.r(A)p.r(C)p.r(G)p.r(U)p.r(G)p.r(U)p.r(C)p.r(C)p.r(G)p.r(A)p.r(G)p.r(U)p.r(A)p.r(C)p.r(A)p.r(G)p.r(C)p.r(U)p.d(T)p.d(T)}|RNA2{r(A)p.r(G)p.r(C)p.r(U)p.r(G)p.r(U)p.r(A)p.r(C)p.r(U)p.r(C)p.r(G)p.r(G)p.r(A)p.r(C)p.r(A)p.r(C)p.r(G)p.r(U)p.r(C)p.d(T)p.d(T)}$$$RNA1{StrandType:ss}|RNA2{StrandType:as}$	75.8
RNA1{r(G)p.r(A)p.r(G)p.r(G)p.r(G)p.r(C)p.r(C)p.r(A)p.r(G)p.r(G)p.r(G)p.r(G)p.r(U)p.r(G)p.r(G)p.r(C)p.r(A)p.r(G)p.r(G)p.d(T)p.d(T)}|RNA2{r(C)p.r(C)p.r(U)p.r(G)p.r(C)p.r(C)p.r(A)p.r(C)p.r(C)p.r(C)p.r(C)p.r(U)p.r(G)p.r(G)p.r(C)p.r(C)p.r(C)p.r(U)p.r(C)p.d(C)p.d(A)}$$$RNA1{StrandType:ss}|RNA2{StrandType:as}$	71.1
RNA1{r(G)p.r(C)p.r(C)p.r(A)p.r(G)p.r(G)p.r(G)p.r(G)p.r(U)p.r(G)p.r(G)p.r(C)p.r(A)p.r(G)p.r(G)p.r(C)p.r(G)p.r(U)p.r(U)p.d(T)p.d(T)}|RNA2{r(A)p.r(A)p.r(C)p.r(G)p.r(C)p.r(C)p.r(U)p.r(G)p.r(C)p.r(C)p.r(A)p.r(C)p.r(C)p.r(C)p.r(C)p.r(U)p.r(G)p.r(G)p.r(C)p.d(C)p.d(C)}$$$RNA1{StrandType:ss}|RNA2{StrandType:as}$	77.7
RNA1{r(G)p.r(C)p.r(C)p.r(C)p.r(A)p.r(A)p.r(C)p.r(G)p.r(C)p.r(C)p.r(A)p.r(U)p.r(C)p.r(G)p.r(G)p.r(C)p.r(C)p.r(G)p.r(C)p.d(T)p.d(T)}|RNA2{r(G)p.r(C)p.r(G)p.r(G)p.r(C)p.r(C)p.r(G)p.r(A)p.r(U)p.r(G)p.r(G)p.r(C)p.r(G)p.r(U)p.r(U)p.r(G)p.r(G)p.r(G)p.r(C)p.d(A)p.d(G)}$$$RNA1{StrandType:ss}|RNA2{StrandType:as}$	64.3
RNA1{r(G)p.r(C)p.r(C)p.r(G)p.r(C)p.r(G)p.r(C)p.r(G)p.r(C)p.r(G)p.r(C)p.r(G)p.r(C)p.r(A)p.r(A)p.r(G)p.r(G)p.r(U)p.r(G)p.d(T)p.d(T)}|RNA2{r(C)p.r(A)p.r(C)p.r(C)p.r(U)p.r(U)p.r(G)p.r(C)p.r(G)p.r(C)p.r(G)p.r(C)p.r(G)p.r(C)p.r(G)p.r(C)p.r(G)p.r(G)p.r(C)p.d(G)p.d(C)}$$$RNA1{StrandType:ss}|RNA2{StrandType:as}$	57.1
RNA1{r(G)p.r(C)p.r(G)p.r(A)p.r(C)p.r(C)p.r(U)p.r(A)p.r(G)p.r(U)p.r(G)p.r(G)p.r(G)p.r(C)p.r(C)p.r(C)p.r(G)p.r(A)p.r(C)p.d(T)p.d(T)}|RNA2{r(G)p.r(U)p.r(C)p.r(G)p.r(G)p.r(G)p.r(C)p.r(C)p.r(C)p.r(A)p.r(C)p.r(U)p.r(A)p.r(G)p.r(G)p.r(U)p.r(C)p.r(G)p.r(C)p.d(C)p.d(A)}$$$RNA1{StrandType:ss}|RNA2{StrandType:as}$	66
RNA1{r(G)p.r(C)p.r(G)p.r(C)p.r(G)p.r(C)p.r(A)p.r(A)p.r(G)p.r(G)p.r(U)p.r(G)p.r(C)p.r(G)p.r(C)p.r(C)p.r(U)p.r(G)p.r(G)p.d(T)p.d(T)}|RNA2{r(C)p.r(C)p.r(A)p.r(G)p.r(G)p.r(C)p.r(G)p.r(C)p.r(A)p.r(C)p.r(C)p.r(U)p.r(U)p.r(G)p.r(C)p.r(G)p.r(C)p.r(G)p.r(C)p.d(G)p.d(C)}$$$RNA1{StrandType:ss}|RNA2{StrandType:as}$	41.3
